Series [1] deals with full length SMN2 minigene mRNA containing SMN2 exon 7. Description: SMN2 minigene mRNA splicing RT-qPCR assay in cultured cells. It counts as cell-based, human. The conditions noted are these: Homo sapiens, HEK293-H; HEK293H cells stably transfected with SMN2-A minigene, 24 hours, 7-point concentration curve; concentration giving 1.5-fold full length SMN2 mRNA vs vehicle; read-out: EC1.5x for production of full length SMN2 mRNA. The protocol: The reverse transcription-quantitative PCR-based (RT-qPCR) assay is used to quantify the level of the full length SMN2 minigene mRNA containing SMN2 exon 7 in a HEK293H cell line stably transfected with said minigene and treated with a test compound.
HEK293H cells stably transfected with the SMN2-A minigene construct described above (10,000 cells/well) are seeded in 200 ut, of cell culture medium (DMEM plus 10% FBS, with 200 μg/mL hygromycin) in 96-well flat-bottom plates and the plate is immediately swirled to ensure proper dispersal of cells, forming an even monolayer of cells. Cells are allowed to attach for at least 4-6 hours. Test compounds are serially diluted 3.16-fold in 100% DMSO to generate a 7-point concentration curve. A solution of test compound (1 μL, 200× in DMSO) is added to each cell-containing well and the plate is incubated for 24 hours in a cell culture incubator (37° C., 5% CO2, 100% relative humidity). 2 replicates are prepared for each test compound concentration. The cells are then lysed in Cells-To-Ct lysis buffer and the lysate is stored at −80° C.
Primer SMN Forward A (SEQ ID NO. 1) hybridizes to a nucleotide sequence in exon 7 (nucleotide 22 to nucleotide 40), primer SMN Reverse A (SEQ ID NO. 2) hybridizes to a nucleotide sequence in the coding sequence of Firefly luciferase, SMN Probe A (SEQ ID NO. 3) hybridizes to a nucleotide sequence in exon 7 (nucleotide 50 to nucleotide 54) and exon 8 (nucleotide 1 to nucleotide 21). The combination of these three oligonucleotides detects only SMN1 or SMN2 minigenes (RT-qPCR) and will not detect endogenous SMN1 or SMN2 genes.
The SMN forward and reverse primers are used at final concentrations of 0.4 μM. The SMN probe is used at a final concentration of 0.15 μM. The GAPDH primers are used at final concentrations of 0.2 μM and the probe at 0.15 μM.
The SMN2-minigene GAPDH mix (15 μL total volume) is prepared by combining 7.5 μL of 2×RT-PCR buffer, 0.4 μL of 25×RT-PCR enzyme mix, 0.75 μL of 20×GAPDH primer-probe mix, 4.0075 μL of water, 2 μL of 10-fold diluted cell lysate, 0.06 μL of 100 μM SMN forward primer, 0.06 μL of 100 μM SMN reverse primer, and 0.225 μL of 100 μM SMN probe.
PCR is carried out at the following temperatures for the indicated time: Step 1: 48° C. (15 min); Step 2: 95° C. (10 min); Step 3: 95° C. (15 sec); Step 4: 60° C. (1 min); then repeat Steps 3 and 4 for a total of 40 cycles.
Each reaction mixture contains both SMN2-A minigene and GAPDH primersprobe sets (multiplex design), allowing simultaneous measurement of the levels of two transcripts.
Two SMN spliced products are generated from the SMN2 minigene. The first spliced product containing exon 7, corresponding to full length SMN2 mRNA, is referred to herein using the term “SMN2 minigene FL.” The second spliced product lacking exon 7 is referred to herein using the term “SMN2 minigene Δ7.”
The increase of SMN2 minigene FL mRNA relative to that in cells treated with vehicle control is determined from real-time PCR data using a modified ΔΔCt method (as described in Livak and Schmittgen, Methods, 2001, 25:402-8). The amplification efficiency (E) is calculated from the slope of the amplification curve for SMN2 minigene FL and GAPDH individually. The abundances of SMN2 minigene FL and GAPDH are then calculated as (1+E)^−Ct, where Ct is the threshold value for each amplicon. The abundance of SMN2 minigene FL is normalized to GAPDH abundance. The normalized SMN2 minigene FL abundance from test compound-treated samples is then divided by normalized SMN2 minigene FL abundance from vehicle-treated cells to determine the level of SMN2 FL mRNA relative to vehicle control.
Background: Quantitative PCR measures a nucleic acid by following its amplification.

Series [2] concerns Smn protein. As to the kind of experiment: Smn protein assay in cultured cells (SMN HTRF). It counts as cell-based, human. The following applies: SMA patient fibroblast cells (GM03813), 48 hours; for EC1.5x for Smn protein expression: 7-point concentration curve, concentration producing 1.5 times Smn protein vs DMSO vehicle; for maximum fold (Fold) increase of Smn protein: 7-point concentration data, relative to vehicle control. On the procedure: The SMN HTRF (homogeneous time resolved fluorescence) assay is used to quantify the level of Smn protein in SMA patient fibroblast cells treated with test compounds.
Cells are thawed and cultured in DMEM-10% FBS for 72 hours. Cells are trypsinized, counted and re-suspended to a concentration of 25,000 cells/mL in DMEM-10% FBS. The cell suspensions are plated at 5,000 cells per well in a 96 well microtiter plate and incubated for 3 to 5 hours. […] Test compounds are serially diluted 3.16-fold in 100% DMSO to generate a 7-point concentration curve. 1 μL of test compound solution is transferred to cell-containing wells and cells are incubated for 48 hours in a cell culture incubator (37° C., 5% CO2, 100% relative humidity). Triplicate samples are set up for each test compound concentration. After 48 hours, the supernatant is removed from the wells and 25 μL of the RIPA lysis buffer, containing protease inhibitors, is added to the wells and incubated with shaking at room temperature for 1 hour. 25 μL of the diluent is added and then 35 μL of the resulting lysate is transferred to a 384-well plate, where each well contains 5 μL of the antibody solution (1:100 dilution of anti-SMN d2 and anti-SMN kryptate in SMN reconstitution buffer). The plate is centrifuged for 1 minute to bring the solution to the bottom of the wells, then incubated overnight at room temperature. Fluorescence for each well of the plate at 665 nm and 620 nm is measured on an EnVision multilabel plate reader (Perkin-Elmer).
The normalized fluorescence signal is calculated for each sample, Blank and vehicle control well by dividing the signal at 665 nm by the signal at 620 nm. Normalizing the signal accounts for possible fluorescence quenching due to the matrix effect of the lysate. The ΔF value (a measurement of Smn protein abundance as a percent value) for each sample well is calculated by subtracting the normalized average fluorescence for the Blank control wells from the normalized fluorescence for each sample well, then dividing this difference by the normalized average fluorescence for the Blank control wells and multiplying the resulting value by 100. The ΔF value for each sample well represents the Smn protein abundance from test compound-treated samples. The ΔF value for each sample well is divided by the ΔF value for the vehicle control wells to calculate the fold increase in Smn protein abundance relative to the vehicle control.

The values that follow come from patent US9399649B2, “Compounds for treating spinal muscular atrophy” (PTC Therapeutics Inc., priority 2012, dated 2016).

Broadly, the melting point is the temperature of the solid-liquid transition.

Where only a bound is given, the exact number is not on record here.

Consider `Cc1nc(Cl)cn2cc(-c3cc4ccc(N5CCN(C)[C@H](C)C5)cc4c(=O)o3)nc12` [Cpd 111, 3-(6-chloro-8-methylimidazo[1,2-a]pyrazin-2-yl)-7-[(3R)-3,4-dimethylpiperazin-1-yl]-1H-isochromen-1-one], for which the melting point is 271 to 276 °C. The EC (1.5-fold) in series [1] was 0.1 to 0.3 µM. In addition, in series [2], the “EC1.5x for Smn protein expression” value is “*** (an EC1.5× between >0.3 nM and ≦1 nM is indicated by three stars (***))”; the “maximum fold (Fold) increase of Smn protein” value (“maximum fold (Fold) increase” below) was “***** (a fold increase >1.65 is indicated by five stars (*****))”.

`CCN1[C@H](C)CN(c2ccc3cc(-c4cn5cc(C)nc(C)c5n4)oc(=O)c3c2)C[C@@H]1C` [Cpd 147, 3-(6,8-dimethylimidazo[1,2-a]pyrazin-2-yl)-7-[(3R,5S)-4-ethyl-3,5-dimethylpiperazin-1-yl]-1H-isochromen-1-one] gave a melting point of 253 to 258 °C. In addition, the EC (1.5-fold) in series [1] was at most 0.1 µM. Moreover, in series [2], the “EC1.5x for Smn protein expression” value was “*** (an EC1.5× between >0.3 nM and ≦1 nM is indicated by three stars (***))”; the “maximum fold (Fold) increase” value is “***** (a fold increase >1.65 is indicated by five stars (*****))”.

As for `CCCN1CCN(c2ccc3cc(-c4cn5cc(C)nc(C)c5n4)oc(=O)c3c2)C[C@H]1C` [Cpd 141, 3-(6,8-dimethylimidazo[1,2-a]pyrazin-2-yl)-7-[(3R)-3-methyl-4-propylpiperazin-1-yl]-1H-isochromen-1-one], the melting point lay within 251 to 256 °C. Besides, in series [1], the EC (1.5-fold) is at most 0.1 µM. In addition, in series [2], the “EC1.5x for Smn protein expression” value is on record as “**** (an EC1.5×≦0.3 nM is indicated by four stars (****))” and the “maximum fold (Fold) increase” value is reported as “***** (a fold increase >1.65 is indicated by five stars (*****))”.

Take `COc1ccc(-c2cc3ccc(N4CCN(C)CC4)cc3c(=O)o2)cc1OC` [Cpd 16, 3-(3,4-dimethoxyphenyl)-7-(4-methylpiperazin-1-yl)-1H-isochromen-1-one]: in series [1], the EC (1.5-fold) was 0.3 to 1 µM. The “maximum fold (Fold) increase” value in series [2] is “*** (a fold increase between >1.35 and ≦1.5 is indicated by three stars (***))”.

In the case of `Cc1cn2cc(-c3cc4ccc(N5CCN(CCO)[C@H](C)C5)cc4c(=O)o3)nc2cn1` [Cpd 133, 7-[(3R)-4-(2-hydroxyethyl)-3-methylpiperazin-1-yl]-3-(6-methylimidazo[1,2-a]pyrazin-2-yl)-1H-isochromen-1-one], the EC (1.5-fold) in series [1] is at most 0.1 µM. Besides, in series [2], the “EC1.5x for Smn protein expression” value was “**** (an EC1.5×≦0.3 nM is indicated by four stars (****))” and the “maximum fold (Fold) increase” value is recorded as “***** (a fold increase >1.65 is indicated by five stars (*****))”.

For the compound `CCc1nc(C)cn2cc(-c3cc4ccc(N5CCNCC5)cc4c(=O)o3)nc12` [Cpd 150, 3-(8-ethyl-6-methylimidazo[1,2-a]pyrazin-2-yl)-7-(piperazin-1-yl)-1H-isochromen-1-one], in series [1], the EC (1.5-fold) is at most 0.1 µM. In series [2], the “EC1.5x for Smn protein expression” value is on record as “**** (an EC1.5×≦0.3 nM is indicated by four stars (****))” and the “maximum fold (Fold) increase” value was “***** (a fold increase >1.65 is indicated by five stars (*****))”.

Take `Cc1cn2cc(-c3cc4ccc(N5CCN6CCC[C@@H]6C5)cc4c(=O)o3)nc2c(C)n1` [Cpd 70, 3-(6,8-dimethylimidazo[1,2-a]pyrazin-2-yl)-7-[(8aR)-hexahydropyrrolo[1,2-a]pyrazin-2(1H)-yl]-1H-isochromen-1-one]: in series [1], the EC (1.5-fold) lay within 0.1 to 0.3 µM. In series [2], the “EC1.5x for Smn protein expression” value is “*** (an EC1.5× between >0.3 nM and ≦1 nM is indicated by three stars (***))”; the “maximum fold (Fold) increase” value is “**** (a fold increase between >1.5 and ≦1.65 is indicated by four stars (****))”.

On to `Cc1cn2cc(-c3cc4ccc(N5CCNCC5)cc4c(=O)o3)nc2c(C)n1` [Cpd 62, 3-(6,8-dimethylimidazo[1,2-a]pyrazin-2-yl)-7-(piperazin-1-yl)-1H-isochromen-1-one], for which the EC (1.5-fold) in series [1] was at most 0.1 µM. For the same compound, in series [2], the “EC1.5x for Smn protein expression” value is given as “**** (an EC1.5×≦0.3 nM is indicated by four stars (****))” and the “maximum fold (Fold) increase” value is on record as “***** (a fold increase >1.65 is indicated by five stars (*****))”.

For `Cc1cn2cc(-c3cc4ccc(N5CCN(CCO)[C@@H](C)C5)cc4c(=O)o3)nc2c(C)n1` [Cpd 134, 3-(6,8-dimethylimidazo[1,2-a]pyrazin-2-yl)-7-[(3S)-4-(2-hydroxyethyl)-3-methylpiperazin-1-yl]-1H-isochromen-1-one], the EC (1.5-fold) in series [1] is at most 0.1 µM. Also, in series [2], the “EC1.5x for Smn protein expression” value was “**** (an EC1.5×≦0.3 nM is indicated by four stars (****))” and the “maximum fold (Fold) increase” value was “***** (a fold increase >1.65 is indicated by five stars (*****))”.

`Cc1cn2cc(-c3cc4ccc(N5C[C@@H](C)N(C6CCC6)[C@@H](C)C5)cc4c(=O)o3)nc2cn1` [Cpd 132, 7-[(3R,5S)-4-cyclobutyl-3,5-dimethylpiperazin-1-yl]-3-(6-methylimidazo[1,2-a]pyrazin-2-yl)-1H-isochromen-1-one]: in series [1], the EC (1.5-fold) was at most 0.1 µM. Moreover, in series [2], the “EC1.5x for Smn protein expression” value is given as “**** (an EC1.5×≦0.3 nM is indicated by four stars (****))” and the “maximum fold (Fold) increase” value is on record as “***** (a fold increase >1.65 is indicated by five stars (*****))”.

Regarding `Cc1cn2cc(-c3cc4ccc(C5CCN(C6CCC6)CC5)cc4c(=O)o3)nc2c(C)n1` [Cpd 118, 7-(1-cyclobutylpiperidin-4-yl)-3-(6,8-dimethylimidazo[1,2-a]pyrazin-2-yl)-1H-isochromen-1-one], the EC (1.5-fold) in series [1] is at most 0.1 µM. Besides, in series [2], the “EC1.5x for Smn protein expression” value is “**** (an EC1.5×≦0.3 nM is indicated by four stars (****))”; the “maximum fold (Fold) increase” value is “**** (a fold increase between >1.5 and ≦1.65 is indicated by four stars (****))”.
